The results in this text go back to patent US6335339B1, “Triazine antiviral compounds” (Scriptgen Pharmaceuticals, Inc., priority 1998, dated 2002).

Each structure is given as a SMILES string. pEC50: −log10 of the molar value.

Test system in one data set: not listed separately
Put plainly: neutral red dye uptake cytotoxicity. Particulars: human, 2.2.15 cells (confluent cultures), 9 days treatment, read-out: 50% Cell Death CC50. In kind it is cell-based. A digest of the protocol:
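Confluent 2.2.15 cultures, same conditions as antiviral assay, treated daily for 9 days with 4 concentrations (3.3-fold dilutions), triplicate wells. 24 hours after the final dose, cells stained 30 minutes with 0.01% neutral red, dye extracted and A510 read; values as % of untreated cultures, CC50 as 50% cell death.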
Usually CC50 stands for the concentration at which the toxic effect on the cells reaches its halfway point. In the case of `CC(C)(C)Nc1nc(NCc2ccccc2)nc(N/N=C/c2ccccc2F)n1` [Compound 93, 2-fluorobenzaldehyde N-[4-(benzylamino)-6-(tert-butylamino)-1,3,5-triazin-2-yl]hydrazone], the half-maximal cytotoxic concentration (CC50) at 9 days was 54 µM.

In another data set the test system is HBV. Put plainly: antiviral assay in 2.2.15 cells producing HBV (virion DNA dot blot). In kind it is cell-based, Hepatitis B virus. Particulars: Hepatitis B virus, 216 h, read-out: Antiviral EC50 (μM). From the text: Several cell lines and cell culture assays have been developed to identify potential therapeutics effective against chronic HBV infection. One of these cell lines, 2.2.15, has been used in a standardized assay that has repeatedly proven to be an accurate model of chronic cellular HBV replication and a predictive model of antiviral response for chronic hepadnaviral infection in vivo. 2.2.15 cells contain copies of the complete HBV genome integrated into the cell's genome, and 2.2.15 cells are not susceptible to infection by HBV. (Sells, M. A. et al., J. Virol. 62 (8): 2836-2844 (1988)). These cells express HBV genes producing complete HBV particles capable of infecting chimpanzees (Acs, G. et al., Proc. Natl. Acad. Sci. USA 84 (13): 4641-4644 (1987)). Briefly, 2.2.15 cells are cultured and pretreated with a test compound for about 9 days, at which point the media are harvested and subjected to dot-blot hybridization to detect HBV virion DNA.
The antiviral activity of the compounds of the present invention is measured by the methods described in Korba and Gering, Antiviral Res. 19: 55-70 (1992).
This assay format is well suited to the screening of test compounds for potential antiviral activity. The assay provides a threshold assessment of antiviral activity by measuring (i) the levels of HBV virion release from the cells and (ii) cytotoxicity. Two rows of cells were used for each compound, and 4 rows for the assay controls (two for untreated, and two for positive antiviral control, e.g., 3TC). After incubating in the presence of test compound for 9 days, the media were harvested, transferred to 96-well U-bottom plates, and centrifuged. The supernatants were transferred to tubes for dot blot hybridization analysis of HBV virion DNA. The medium was aspirated off of the toxicity plates and discarded. Toxicity plates were then incubated with neutral red dye (MTT can also be used if preferred), washed with DPBS, developed with an acetic acid-ethanol solution, and assayed in a plate reader.
1. 2.2.15 cells were seeded into 96-well, flat bottom tissue culture plates as described above. Duplicate plates were used for the antiviral treatments for each test compound (up to 8 compounds per pair of plates); after three to four days, cells were confluent and medium was yellow in color; the medium was removed and replaced with 100 μl RP2 24 hours before the beginning of drug treatment.
i) For each compound, a total of 4 concentrations were examined; this required 9 sets of 4 sterile, 1.1 ml minitubes (36 tubes per compound). Into the first tube of each set, sufficient compound was aliquoted to make up 700 μl (for 10-fold dilution series) or 980 μl (for 3.3-fold dilution series) of the highest test concentration; the other tubes were left empty.
i) For a 10-fold dilution series: to the first (compound containing) tube was added 700 μl (175 μl×4). 630 μl (210 μl×3) RP2 culture medium was added to the remaining 3 tubes. The first tube was mixed by pipeting up and down with a pipetman (a multichannel pipetman permits the simultaneous processing of multiple compounds). 70 μl of test compound-containing medium were serially transferred from the first tube to the other 3 tubes, taking care to thoroughly mix each tube before transferring medium;
b) 100 μl of each dilution of every compound was added to each of 6 wells (3 wells per plate) using the configuration listed below as an example. The lowest concentration was added first, and the same tips were used to add the higher concentrations. The untreated cells received 100 μl RP2 per well (untreated cells have to be carried on only one pair of the antiviral assay plates).
c) Treatments were repeated daily for 9 days. For the last day of treatment, and additional 200 μl RP2 were added to each well of the antiviral assay plates after the wells are treated with the test compounds (a total of 300 μl medium per well).
6. […]
By EC50 is commonly meant the midpoint of the concentration-response curve. `CC(C)(C)Nc1nc(NCc2ccccc2)nc(N/N=C/c2ccccc2F)n1` [Compound 93, 2-fluorobenzaldehyde N-[4-(benzylamino)-6-(tert-butylamino)-1,3,5-triazin-2-yl]hydrazone]: the concentration for a half-maximal effect (EC50) turned out to be 0.503 µM.

The data set is the same for the next values; noted with them: Hepatitis B virus, 216 h; extra-cellular virus reduced by 50%; 2.2.15 cells, 9 days treatment; read-out: Antiviral EC50.
As a reminder, the pEC50 is the negative decadic logarithm of the EC50, by convention in mol/L. In the case of `CC(C)(C)Nc1nc(NCc2ccccc2)nc(N/N=C/c2ccccc2F)n1` [Compound 93, 2-fluorobenzaldehyde N-[4-(benzylamino)-6-(tert-butylamino)-1,3,5-triazin-2-yl]hydrazone], the pEC50 is 8.22.

The same data set, now with this note: extra-cellular virus reduced by 50%; 2.2.15 cells, 9 days treatment; read-out: Antiviral EC50.
With `CC(C)(C)Nc1nc(NCc2ccccc2)nc(NN=Cc2ccc3c(c2)OCO3)n1` [Compound 67], the pEC50 was under 4.00.

On to `Cc1[nH]c2ccccc2c1C=NNc1nc(Nc2ccccc2)nc(N2CCOCC2)n1` [Compound 4], for which the pEC50 was 5.47.

On to `CCN(CC)c1nc(N/N=C/c2ccc([N+](=O)[O-])cc2)nc(Nc2cc(C)ccc2C)n1` [Compound 63], for which the pEC50 was under 4.00.

Turning to `CC(C)c1ccc(C=NNc2nc(Nc3ccc([N+](=O)[O-])cc3)nc(N3CCCCC3)n2)cc1` [Compound 62], the negative-log EC50 (pEC50) was under 4.00.

On to `CCCCN(CCCC)c1nc(NN=C(C)c2ccccc2)nc(Nc2ccc([N+](=O)[O-])cc2)n1` [Compound 74], for which the pEC50 was under 4.00.

As for `CCN(CC)c1nc(NN=Cc2cc([N+](=O)[O-])ccc2OC)nc(Nc2cc(C)ccc2C)n1` [Compound 85], the pEC50 was under 4.00.

For `CCN(CC)c1nc(NN=Cc2ccc(F)cc2)nc(Nc2ccc([N+](=O)[O-])cc2)n1` [Compound 68], the pEC50 is under 4.00.

As for `CNc1nc(NN=Cc2ccccc2[N+](=O)[O-])nc(Nc2ccccc2)n1` [Compound 65], the negative-log EC50 (pEC50) is under 4.00.

Turning to `Brc1cc2c(cc1C=NNc1nc(NCc3ccccc3)nc(Nc3ccccc3)n1)OCO2` [Compound 43], the pEC50 was 6.08.

For the compound `O=[N+]([O-])c1ccc(Nc2nc(N/N=C/c3cccc(Cl)c3)nc(N3CCCCC3)n2)cc1` [Compound 41], the pEC50 is 4.44.

`CC(C)c1ccc(C=NNc2nc(Nc3ccc([N+](=O)[O-])cc3)nc(N3CCCCCC3)n2)cc1` [Compound 56]: the pEC50 is under 4.00.

For `COc1ccc(C=NNc2nc(Nc3ccc([N+](=O)[O-])cc3)nc(N3CCCCC3)n2)cc1` [Compound 44], the pEC50 is 5.32.

As to `O=[N+]([O-])c1ccc(C=NNc2nc(Nc3ccccc3)nc(NC3CCCCC3)n2)cc1` [Compound 46], the pEC50 was under 4.00.

In the case of `Cc1ccc(Nc2nc(NN=Cc3ccc(Cl)c(Cl)c3)nc(Nc3ccccc3)n2)c(C)c1` [Compound 40], the pEC50 is 4.52.

On to `Cc1ccc(Nc2nc(NN=Cc3ccc4c(c3)OCO4)nc(Nc3ccccc3)n2)c(C)c1` [Compound 51], for which the pEC50 is 4.82.

`Cc1ccc(Nc2nc(NN=Cc3ccc(Cl)cc3)nc(Nc3ccccc3)n2)c(C)c1` [Compound 42]: the pEC50 is 5.21.

With `Oc1ccc(Nc2nc(Nc3cccc(C(F)(F)F)c3)nc(N3CCOCC3)n2)cc1` [Compound 53], the pEC50 is 5.92.

Consider `Cc1ccc(Nc2nc(NN=Cc3cccc(Br)c3)nc(Nc3ccccc3)n2)c(C)c1` [Compound 49], for which the pEC50 is 5.92.

Regarding `CCCCN(CCCC)c1nc(NN=Cc2c[nH]c3ccccc23)nc(Nc2ccc([N+](=O)[O-])cc2)n1` [Compound 39], the pEC50 was 6.00.

With `FC(F)(F)c1cccc(Nc2nc(Nc3cccc(Br)c3)nc(N3CCOCC3)n2)c1` [Compound 38], the pEC50 was 6.23.

As for `COc1ccc(C=NNc2nc(Nc3ccccc3)nc(Nc3ccc(C)cc3C)n2)c(OC)c1` [Compound 61], the pEC50 is 5.43.

In the case of `C(=Cc1ccccc1)C=NNc1nc(NCc2ccccc2)nc(Nc2ccccc2)n1` [Compound 91], the pEC50 is under 4.00.

For the compound `Cc1[nH]c2ccccc2c1C=NNc1nc(Nc2ccccc2)nc(N2CCCCC2)n1` [Compound 88], the pEC50 is 5.32.

`Cc1[nH]c2ccccc2c1C=NNc1nc(NCc2ccccc2)nc(Nc2ccccc2)n1` [Compound 50]: the pEC50 is 4.54.

On to `O=[N+]([O-])c1cc(C=NNc2nc(Nc3ccccc3)nc(N3CCOCC3)n2)ccc1Cl` [Compound 52], for which the pEC50 was 5.35.

Consider `COc1ccccc1C=NNc1nc(Nc2ccc([N+](=O)[O-])cc2)nc(Nc2ccc(C)c(C)c2)n1` [Compound 94], for which the pEC50 was under 4.00.

Turning to `C(=NNc1nc(Nc2ccccc2)nc(N2CCCCC2)n1)c1ccccc1` [Compound 3], the pEC50 was 5.32.
